These results are taken from PubChem BioAssay (NCI).

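Method: 48-hour compound exposure of cells in 96-well plates, five concentrations, linear interpolation of endpoints. GI50 = concentration required for 50% inhibition of growth. TGI denotes the concentration required for complete inhibition of growth.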

Some test systems named below: NCI-H23 lung; KM12 colon; UACC-257 melanoma; OVCAR-5 ovarian; SW-620 colon; A549 NSCLC; HOP-62 NSCLC; MALME-3M melanoma; SF-295 CNS; OVCAR-8 ovarian.
Common to all, as to test: DTP human tumour cell line panel, 48 h

For orientation: TGI means the concentration at which net growth stops. A low value points to greater sensitivity of the cells. Turning to `O=c1oc2ccccc2n1P(=O)(n1c(=O)oc2ccccc21)n1c(=O)oc2ccccc21`, the total growth inhibition concentration (TGI) in the experiment on NCI-H23 lung, with KM12 colon, with UACC-257 melanoma, in the experiment on OVCAR-5 ovarian, with SW-620 colon and in the experiment on A549 NSCLC was greater than 100 µM in each case. Besides, the TGI with HOP-62 NSCLC, in the experiment on MALME-3M melanoma and in the experiment with SF-295 CNS was greater than 100 µM in each case.
As to `CS/C(C#N)=C(\C#N)SC`, the total growth inhibition concentration (TGI) in the experiment on NCI-H23 lung was 79.4 µM; in the experiment on OVCAR-8 ovarian, 6.06 µM; with KM12 colon, 37.7 µM; in the experiment on UACC-257 melanoma, 30.6 µM; with OVCAR-5 ovarian, greater than 100 µM; with SW-620 colon, greater than 100 µM. The TGI with A549 NSCLC was greater than 100 µM; in the experiment with HOP-62 NSCLC it was greater than 100 µM; in the experiment with MALME-3M melanoma it was 30.1 µM; with SF-295 CNS, 53.8 µM.
Take `CC(C)OC(=O)Nc1cccc(Cl)c1`: the concentration for total growth inhibition (TGI) with NCI-H23 lung, with OVCAR-8 ovarian, with KM12 colon, in the experiment on UACC-257 melanoma, in the experiment with OVCAR-5 ovarian and in the experiment on SW-620 colon was greater than 100 µM in each case. The total growth inhibition concentration (TGI) in the experiment with A549 NSCLC, with HOP-62 NSCLC and in the experiment on SF-295 CNS was greater than 100 µM throughout.
For the compound `CN(C)CC1CCCC(CN2CCCCC2)C1=O` (configuration not stated), the concentration for total growth inhibition (TGI) in the experiment with NCI-H23 lung stood at 35.8 µM; in the experiment with OVCAR-8 ovarian, 31.5 µM; in the experiment with KM12 colon it was 44.9 µM; in the experiment on UACC-257 melanoma it was 30.8 µM; in the experiment with OVCAR-5 ovarian, 46.5 µM; in the experiment with SW-620 colon, 3.74 µM. Moreover, the TGI was greater than 76.4 µM in the experiment with A549 NSCLC, greater than 100 µM in the experiment on HOP-62 NSCLC, 6.5 µM in the experiment with MALME-3M melanoma and greater than 100 µM in the experiment with SF-295 CNS.
Consider `[O-]c1c[n+](CCCC[n+]2cc([O-])on2)no1`, for which the total growth inhibition concentration (TGI) in the experiment with NCI-H23 lung, with OVCAR-8 ovarian, in the experiment with KM12 colon, in the experiment on UACC-257 melanoma, in the experiment on OVCAR-5 ovarian and in the experiment on SW-620 colon was greater than 100 µM throughout. The total growth inhibition concentration (TGI) in the experiment on A549 NSCLC, with HOP-62 NSCLC, in the experiment on MALME-3M melanoma and with SF-295 CNS was greater than 100 µM throughout.
Turning to `Cc1cccc(O)c1-c1nnc(CCCCCCCCc2nnc(-c3c(C)cccc3O)n2N)n1N`, the TGI in the experiment with NCI-H23 lung, in the experiment with KM12 colon, in the experiment with UACC-257 melanoma, in the experiment on OVCAR-5 ovarian, in the experiment with SW-620 colon and in the experiment on A549 NSCLC was greater than 100 µM throughout. In addition, the TGI was 62 µM in the experiment with HOP-62 NSCLC, greater than 100 µM with MALME-3M melanoma and greater than 100 µM with SF-295 CNS.
Regarding `Cc1ccc(S(=O)(=O)N2c3ccccc3[C@H]3CCc4c([nH]c5ccccc45)[C@H]32)cc1`, the TGI in the experiment on NCI-H23 lung, in the experiment on OVCAR-8 ovarian, in the experiment on KM12 colon, in the experiment on UACC-257 melanoma, in the experiment with OVCAR-5 ovarian and with SW-620 colon was greater than 100 µM in each case. In addition, the total growth inhibition concentration (TGI) with A549 NSCLC, with HOP-62 NSCLC and in the experiment with SF-295 CNS was greater than 100 µM throughout.
`C[C@H]1C(=O)O[C@@H]1[C@H]1COC(C)(C)O1`: the TGI in the experiment on NCI-H23 lung, in the experiment on OVCAR-8 ovarian, in the experiment with KM12 colon, with UACC-257 melanoma, in the experiment with OVCAR-5 ovarian and with SW-620 colon was greater than 100 µM throughout. The concentration for total growth inhibition (TGI) in the experiment with A549 NSCLC, in the experiment with HOP-62 NSCLC and with SF-295 CNS was greater than 100 µM throughout.
For `CC(N)C(=O)OCN1C(=O)C2C3C=CC(C2C1=O)C1C2C(=O)N(COC(=O)C(C)N)C(=O)C2C31` (configuration not stated), the TGI with NCI-H23 lung is 43.2 µM; with OVCAR-8 ovarian it was 47.8 µM; in the experiment with KM12 colon, 41.6 µM; with UACC-257 melanoma, 75.4 µM; with OVCAR-5 ovarian it was greater than 100 µM; in the experiment on SW-620 colon, 47.4 µM. Besides, the TGI in the experiment on A549 NSCLC was 77.7 µM; in the experiment with HOP-62 NSCLC it was greater than 100 µM; in the experiment on SF-295 CNS, greater than 100 µM.
On to `CO[C@H]1ON=C(c2c(C)cc(C)cc2C)[C@@H]1C1(c2ccccc2)ON=C(c2c(C)cc(C)cc2C)O1` (some centres not stated), for which the concentration for total growth inhibition (TGI) with NCI-H23 lung, in the experiment on OVCAR-8 ovarian, with KM12 colon, in the experiment with UACC-257 melanoma, with OVCAR-5 ovarian and in the experiment on SW-620 colon was greater than 100 µM in each case. Moreover, the TGI with A549 NSCLC, in the experiment on MALME-3M melanoma and in the experiment with SF-295 CNS was greater than 100 µM each time.
Consider `Cc1ccccc1[P+](C)(c1ccccc1C)c1ccccc1C`, for which the TGI was 27.3 µM with NCI-H23 lung; 45.4 µM in the experiment on OVCAR-8 ovarian; 15.8 µM in the experiment with UACC-257 melanoma; 33.5 µM in the experiment with OVCAR-5 ovarian; 39.1 µM in the experiment with SW-620 colon; 55.4 µM in the experiment with A549 NSCLC. The figures for the TGI in the experiment with HOP-62 NSCLC and in the experiment on MALME-3M melanoma were 71.8 µM and 22.9 µM, respectively.
As to `Nc1nc(Cl)cc(NCCCNc2cc(Cl)nc(N)n2)n1`, the total growth inhibition concentration (TGI) in the experiment on NCI-H23 lung, in the experiment with OVCAR-8 ovarian, in the experiment on KM12 colon, in the experiment on UACC-257 melanoma, in the experiment with OVCAR-5 ovarian and in the experiment with SW-620 colon was greater than 100 µM throughout. Moreover, the TGI with A549 NSCLC, with HOP-62 NSCLC, with MALME-3M melanoma and in the experiment with SF-295 CNS was greater than 100 µM throughout.
Regarding `COC(=O)C(=O)C(C(=O)C1=NS(=O)(=O)c2cc(S(N)(=O)=O)c(Cl)cc2N1)c1nc2ccc(C(=O)c3ccccc3)cc2[nH]c1=O` (configuration not stated), the concentration for total growth inhibition (TGI) in the experiment on NCI-H23 lung, in the experiment with OVCAR-8 ovarian, in the experiment with KM12 colon, in the experiment on UACC-257 melanoma, in the experiment on OVCAR-5 ovarian and with SW-620 colon was greater than 100 µM each time. Also, the total growth inhibition concentration (TGI) in the experiment on A549 NSCLC, in the experiment on MALME-3M melanoma and in the experiment with SF-295 CNS was greater than 100 µM each time.
For orientation: GI50 means the concentration at which growth is held to half of that of the control. Regarding `Cn1cc(-c2csc(-c3cn(C)c4ccc(Br)cc34)n2)c2cnccc21`, the GI50 in the experiment on NCI-H23 lung was 1.93 µM; with OVCAR-8 ovarian it was 1.9 µM; in the experiment with KM12 colon, 1.97 µM; in the experiment on UACC-257 melanoma, 1.95 µM; with OVCAR-5 ovarian, 1.78 µM; in the experiment on SW-620 colon it was 1.85 µM. For the same compound, the GI50 is 1.83 µM in the experiment on A549 NSCLC, 1.9 µM in the experiment with HOP-62 NSCLC, 1.95 µM in the experiment with MALME-3M melanoma and 1.81 µM in the experiment with SF-295 CNS. Besides, the total growth inhibition concentration (TGI) in the experiment with NCI-H23 lung came out at 3.65 µM; in the experiment with OVCAR-8 ovarian, 3.61 µM; in the experiment with KM12 colon it was 3.69 µM; in the experiment on UACC-257 melanoma, 3.63 µM; with OVCAR-5 ovarian it was 3.22 µM; with SW-620 colon, 3.48 µM. The total growth inhibition concentration (TGI) was determined as 3.48 µM in the experiment with A549 NSCLC, 3.49 µM in the experiment with HOP-62 NSCLC, 3.48 µM in the experiment with MALME-3M melanoma and 3.4 µM in the experiment on SF-295 CNS.
`NC(=O)c1ccc(NS(=O)(=O)c2ccc(N)cc2)nc1`: the TGI in the experiment with NCI-H23 lung, in the experiment with OVCAR-8 ovarian, in the experiment on KM12 colon, with UACC-257 melanoma, in the experiment with OVCAR-5 ovarian and with SW-620 colon was greater than 100 µM each time. Moreover, the concentration for total growth inhibition (TGI) with HOP-62 NSCLC, in the experiment on MALME-3M melanoma and with SF-295 CNS was greater than 100 µM throughout.
As for `CN1C(=O)CN2C(Cl)(Cl)C2(c2ccccc2F)c2cc([N+](=O)[O-])ccc21` (configuration not stated), the concentration for total growth inhibition (TGI) in the experiment on NCI-H23 lung, with OVCAR-8 ovarian, in the experiment on KM12 colon, in the experiment on UACC-257 melanoma, in the experiment with OVCAR-5 ovarian and with SW-620 colon was greater than 100 µM in each case. Further, the results for the TGI in the experiment on HOP-62 NSCLC, in the experiment with MALME-3M melanoma and with SF-295 CNS were greater than 100 µM, 95.8 µM and greater than 100 µM, respectively.
`C1CCC(OCc2nnn3c2CCC3)OC1` (configuration not stated): the concentration for total growth inhibition (TGI) with NCI-H23 lung, with OVCAR-8 ovarian, in the experiment with KM12 colon, in the experiment with UACC-257 melanoma, in the experiment on OVCAR-5 ovarian and with SW-620 colon was greater than 100 µM throughout. Besides, the TGI with A549 NSCLC, in the experiment on HOP-62 NSCLC, with MALME-3M melanoma and with SF-295 CNS was greater than 100 µM each time.
As for `c1ccc(CSC2(SCc3ccccc3)CCCC2)cc1`, the TGI with NCI-H23 lung, in the experiment with OVCAR-8 ovarian, in the experiment with KM12 colon, with OVCAR-5 ovarian, in the experiment on SW-620 colon and with A549 NSCLC was greater than 10 µM each time. The TGI with HOP-62 NSCLC, with MALME-3M melanoma and in the experiment on SF-295 CNS was greater than 10 µM each time.
